For the test, the system named is TGF-b induced Endothelin-1 production. Nature of the test: ET-1 assay: inhibitory effect on TGF-b induced endothelin-1 production. In kind it is cell-based. Particulars: Homo sapiens, Fibroblast; fibroblasts, stimulant (TGFb, serum, LPA etc), ET-1 in media by ELISA, 4-parameter fit. As for the experimental part:
Assay of Inhibitory Effect on TGF-b Induced Endothelin-1 Production
Fibroblasts (primary human lung and dermal, HFL-1, 3T3 etc) are seeded in 96-well plates at ˜15000 cells/well and serum starved for 0-48 hours. After media exchange, compounds serially diluted in DMSO are added to the cells. After a brief incubation of ˜30 min, stimulants (TGFb, serum, LPA etc) are added followed by further incubation for 16-48 hours. Media is then harvested and stored frozen in plate format for later endothelin-1 (ET-1) determination by ELISA. Toxicity measurements are made using the ATPlite kit (Perkin-Elmer). ET-1 is quantified using an ELISA kit (R&D Systems). The amount of ET-1 produced in the assay wells are back-calculated using the ELISA standard. The ability of a compound to inhibit ET-1 production is typically analyzed by fitting dose-response curves to a 4-parameter logistic function to obtain an EC50 value. A measure of cytotoxicity (CC50) is likewise reported from the same experiment using the ATPlite data.
Compounds of some embodiments were prepared according to synthetic methods described herein and assay data obtained for EC50 against ET-1. The assay data obtained is presented in Table 2, in which A=less than 50 μM, B=greater than or equal to 50 μM and less than or equal to 200 μM; and C=greater than 200 μM.
On the technique in general: An ELISA detects its analyte on a solid surface through an enzyme-linked reagent.

Broadly, the EC50 is the midpoint of the concentration-response curve. A high value points to a need for much substance.

In the case of `CCOc1ccc(-n2cc(-c3cnn(C)c3)c(NCc3ccc(OCCOC)cc3)cc2=O)c(C)c1` [Compound 707], the EC50 was < 50 µM.
As for `Cc1cc(=O)n(-c2ccc(OC(F)(F)F)cc2)cc1-c1cccc2c1NC(=O)CO2` [Compound 426], the figure is > 200 µM; as for `CCn1ccc2c(-c3cnn(C)c3)c[nH]c(=O)c21` [Compound 611], < 50 µM.
For `COC(=O)Nc1cc(=O)n(-c2ccc(OC(F)(F)F)cc2)cc1-c1cnn(C)c1` [Compound 138], the EC50 was > 200 µM.
As for `CCOc1ccc(Oc2cc(=O)n(-c3ccc(OC(F)(F)F)cc3)cc2-c2cnn(C)c2)cc1C` [Compound 154], the figure is > 200 µM.
As for `COCCOc1ccc(-n2cc(-c3cn[nH]c3)c(C)cc2=O)cc1` [Compound 24], the figure is > 200 µM; as for `Cc1n[nH]c(C)c1-c1ccc(=O)n(-c2cccc(C(F)(F)F)c2)c1` [Compound 384], 50 to 200 µM; as for `Cc1cc(=O)n(-c2ccc(C(F)(F)F)cc2)cc1-c1ccc(F)cc1` [Compound 173], > 200 µM.
With `Cc1cc(=O)n(-c2cccc(OC(F)(F)F)c2)cc1-c1ccc(F)cc1` [Compound 174], the EC50 was < 50 µM.
With `Cn1cc(-c2cn(-c3ccc(OC(F)(F)F)cc3)c(=O)cc2NCc2c(Cl)cccc2Cl)cn1` [Compound 132], the EC50 is > 200 µM.
As for `Cc1cc(=O)n(-c2ccc(C(F)(F)F)cc2C)cc1-c1ccccc1` [Compound 170], the figure is < 50 µM; as for `COc1cc(-n2cc(-c3cnn(C)c3)c(C)cc2=O)cc(OC)c1OC` [Compound 221], > 200 µM.
For the compound `COc1cccc(-n2cc(-c3cn[nH]c3)ccc2=O)c1` [Compound 375], the EC50 was > 200 µM.
As for `Cn1cc(-c2cn(-c3ccc(OC(F)(F)F)cc3)c(=O)cc2Oc2cccc(F)c2)cn1` [Compound 409], the figure is < 50 µM.
As for `CC(C)c1cc(=O)n(-c2ccc(OC(F)(F)F)cc2)cc1-c1cnn(C)c1` [Compound 236], the figure is 50 to 200 µM; as for `Cn1cc(-c2cn(-c3ccc(OC(F)(F)F)cc3)c(=O)c3c2OCC(=O)N3)cn1` [Compound 393], > 200 µM; as for `Cc1cc(=O)n(-c2ccc(OC(F)(F)F)cc2)cc1-c1cccc2c1OCC(=O)N2` [Compound 423], > 200 µM.
The same measure for `Cc1cc(=O)n(-c2ccc(OC(F)(F)F)cc2)cc1-c1ccc2c(c1)OC(C)(C)O2` [Compound 211]: > 200 µM; for `CCn1ccc2c(=O)n(-c3ccc(OC(F)(F)F)cc3)cc(-c3cnn(C)c3)c21` [Compound 694]: < 50 µM; for `CN1CCN(CCOc2cc(=O)n(-c3ccc(OC(F)(F)F)cc3)cc2-c2cnn(C)c2)CC1` [Compound 152]: 50 to 200 µM.
`O=c1ncc(-c2ccnnc2)cn1-c1ccc(OC(F)(F)F)cc1` [Compound 347] registered an EC50 of 50 to 200 µM.
The same measure for `Cc1cc(=O)n(-c2ccc3c(c2)OCO3)cc1-c1cnn(C)c1` [Compound 223]: > 200 µM; for `Cc1cc(=O)n(-c2cccc(C(F)(F)F)c2)cc1-c1ccc(F)cc1` [Compound 177]: 50 to 200 µM; for `CCn1nc2c(-c3ccc(F)cc3)cn(-c3ccc(OC(F)(F)F)cc3)c(=O)c2n1` [Compound 680]: > 200 µM.
As for `CCOc1ccc(-n2cc(-c3cnn(C)c3)c(NCc3ccc(C#N)cc3)cc2=O)c(C)c1` [Compound 704], the figure is < 50 µM; as for `O=c1ccc2c(n1-c1ccccc1)CCC2` [Compound 27], > 200 µM; as for `Cc1nc2c(=O)n(-c3ccc(OC(F)(F)F)cc3)cc(-c3ccc(F)cc3)c2o1` [Compound 568], > 200 µM.
Take `N#Cc1cc(=O)n(-c2ccc(OC(F)(F)F)cc2)cc1-c1ccc(F)cc1` [Compound 401]: the EC50 is > 200 µM.
`C[C@@H]1CCC(=O)N(c2ccccc2)C1` [Compound 84]: the EC50 was > 200 µM.
Take `CC(=O)Nc1cccc(-n2cc(C(F)(F)F)ccc2=O)c1` [Compound 277]: the concentration for a half-maximal effect (EC50) was > 200 µM.
The same measure for `Cn1cc(-c2c[nH]c(=O)c3[nH]ccc23)cn1` [Compound 612]: < 50 µM; for `O=c1ccc(-c2cn[nH]c2)cn1-c1ccc(Cl)cc1` [Compound 371]: > 200 µM.
`Cc1cc(=O)n(-c2ccc(OC(F)(F)F)cc2)cc1-c1cccc(Cl)c1` [Compound 191] displayed an EC50 of 50 to 200 µM.
The same measure for `Cn1cc(-c2cn(-c3ccc(F)cc3)c(=O)cc2Oc2ccccc2)cn1` [Compound 532]: < 50 µM; for `Cn1cc(-c2cn(-c3ccc(OC(F)(F)F)cc3)c(=O)cc2NCc2ncccn2)cn1` [Compound 529]: > 200 µM; for `Cc1ccc(=O)n(-c2ccccc2F)c1` [Compound 283]: > 200 µM.
Take `COC(=O)Nc1cc(=O)n(-c2ccc(OC(F)(F)F)cc2)cc1-c1ccc(F)cc1` [Compound 111]: the EC50 is > 200 µM.
Turning to `CCOC(=O)Nc1cc(=O)n(-c2ccc(OC(F)(F)F)cc2)cc1-c1cnn(C)c1` [Compound 137], the concentration for a half-maximal effect (EC50) is > 200 µM.
The same measure for `Cc1ccc(=S)n(-c2ccc(OC(C)C)cc2)c1` [Compound 334]: > 200 µM; for `CCOc1ccc(-n2cc(-c3ccccc3)c(C)cc2=O)c(C)c1` [Compound 168]: 50 to 200 µM; for `Cn1cc(-c2cn(-c3ccc(Cl)cc3)c(=O)c3c2ccn3C)cn1` [Compound 599]: < 50 µM.
Regarding `Cn1cc(-c2cn(-c3ccc(OC(F)(F)F)cc3)c(=O)c3c2NCCC3)cn1` [Compound 44], the EC50 was > 200 µM.
The same measure for `NS(=O)(=O)c1ccc(-c2ccc(=O)n(-c3cccc(C(F)(F)F)c3)c2)cc1` [Compound 329]: > 200 µM.
On to `Cc1cc(=O)n(-c2ccc(OC(F)(F)F)cc2)cc1C` [Compound 367], for which the 50% effective concentration (EC50) is > 200 µM.
The same measure for `CC(C)C(=O)Nc1cc(=O)n(-c2ccc(OC(F)(F)F)cc2)cc1-c1ccc(F)cc1` [Compound 108]: > 200 µM.
As for `CC(C)n1cc(-c2ccc(=O)n(-c3ccccc3)c2)cn1` [Compound 388], the EC50 was > 200 µM.
The same measure for `Cc1cc(=O)n(-c2ccc(OC(F)(F)F)cc2)cc1-c1cnc2nccn2c1` [Compound 248]: > 200 µM; for `Cn1cc(-c2ccc(=O)n(-c3ccc(OC(F)(F)F)cc3)n2)cn1` [Compound 363]: > 200 µM.
As to `O=c1ccc(C(F)(F)F)cn1-c1cncnc1` [Compound 279], the EC50 is > 200 µM.
`Cc1n[nH]c(C)c1-c1ccc(=O)n(-c2ccc(F)cc2)c1` [Compound 379]: the EC50 is > 200 µM.
For `Cn1cc(-c2cn(-c3ccc(OC(F)(F)F)cc3)c(=O)cc2Oc2cc(Cl)cc(C#N)c2)cn1` [Compound 156], the EC50 was > 200 µM.
For the compound `O=C(Nc1cc(=O)n(-c2ccc(OC(F)(F)F)cc2)cc1-c1ccc(F)cc1)OCc1ccccc1` [Compound 103], the EC50 was > 200 µM.
In the case of `CCOc1ccc(-n2cc(-c3ccc4ocnc4c3)c(C)cc2=O)c(C)c1` [Compound 420], the EC50 was 50 to 200 µM.
On to `CCc1cc(=O)n(-c2ccc(OC(F)(F)F)cc2)cc1-c1cnn(C)c1` [Compound 235], for which the concentration for a half-maximal effect (EC50) lay within 50 to 200 µM.
As for `Cc1cc(=O)n(-c2ccc(OC(F)(F)F)cc2)cc1-c1nn[nH]n1` [Compound 253], the figure is > 200 µM; as for `Cc1cc(=O)n(-c2ccc(OC(F)(F)F)cc2)cc1-c1ccc(Cl)c(Cl)c1` [Compound 197], 50 to 200 µM.
The same measure for `Cn1cc(-c2cn(-c3ccc(C#N)cc3)c(=O)c3c2ccn3C)cn1` [Compound 597]: > 200 µM; for `O=c1cc2ccccc2cn1-c1ccccc1` [Compound 354]: 50 to 200 µM.
The same measure for `CCCCC(=O)Nc1cc(=O)n(-c2ccc(OC(F)(F)F)cc2)cc1-c1ccc(F)cc1` [Compound 107]: > 200 µM; for `O=c1ccc(-c2cccc(Cl)c2)cn1-c1ccc(Cl)cc1` [Compound 314]: < 50 µM.
Regarding `Cc1cc(=O)n(-c2cccc(OC(F)(F)F)c2)cc1-c1cnn(C)c1` [Compound 227], the EC50 is > 200 µM.
In the case of `O=c1ccc(-c2cn[nH]c2)cn1-c1cccc(C(F)(F)F)c1` [Compound 373], the EC50 is > 200 µM.
As for `N#Cc1ccc(-n2cc(-c3cn[nH]c3)c3cc[nH]c3c2=O)cc1` [Compound 608], the figure is 50 to 200 µM; as for `O=c1ccc(-c2ccc(F)cc2)cn1CCc1ccccc1` [Compound 77], 50 to 200 µM.
As for `O=c1ccc(-c2cncnc2)cn1-c1ccccc1F` [Compound 346], the figure is > 200 µM.
The same measure for `Cc1cc(=O)n(-c2ccc(OC(F)(F)F)cc2)cc1-c1ccc2cn(C)nc2c1` [Compound 250]: 50 to 200 µM.
On to `Cn1cc(-c2cn(-c3ccc(OC(F)(F)F)cc3)c(=O)c3ccc(C(F)(F)F)nc23)cn1` [Compound 39], for which the EC50 is < 50 µM.
The same measure for `CCOc1ccc(-n2cc(-c3ccccc3)ccc2=O)c(C)c1` [Compound 298]: 50 to 200 µM; for `COc1cccc(-n2cc(C(C)=O)ccc2=O)c1` [Compound 14]: > 200 µM; for `CC(C)OCCn1ccc2c(-c3cn[nH]c3)cn(-c3ccc(OC(F)(F)F)cc3)c(=O)c21` [Compound 692]: < 50 µM.
As for `COc1ccc(-c2ccc(=O)n(-c3cccc(OC)c3)c2)cc1` [Compound 309], the figure is 50 to 200 µM.
On to `O=c1ccc(C2CCC2)cn1-c1ccccc1` [Compound 65], for which the EC50 is > 200 µM.

The record behind these values is US10233195B2, “Anti-fibrotic pyridinones” (InterMune, Inc., priority 2014, dated 2019).
